Values of other authors as cited in US20120077872A1, “PRESERVATIVE-FREE PHARMACEUTICAL TETRAHYDROLIPSTATIN COMPOSITIONS” (EMS S.A., priority 2009, published 2012).

Details: stored at dry atmosphere

## CCCCCCCCCCC[C@@H](C[C@@H]1OC(=O)[C@H]1CCCCCC)OC(=O)[C@H](CC(C)C)NC=O [THL, N-Formyl-L-leucine (1S)-1-[[(2S,3S)-3-hexyl-4-oxo-2-oxetanyl]methyl]dodecyl ester]
  temperature at which degradation starts: around 40 °C
